Results: patent US10854312B2, “Selective peptide antagonists” (BIONIZ, LLC, priority 2013, dated 2020)
“Also recorded” adds a separate entry of the source. No end group written: not given here.

Tests used:
Assay type in all cases: cell-based
mouse IL-9 = test: PT-18 proliferation assay (WST-1), IL-9; settings: murine PT-18 cells, 1 nM mouse IL-9, BNZ132-1 50 nM, 500 nM, 5 μM
Procedure: FIG. 6A-FIG. 6E presents inhibitory spectrum of BNZ132-1 over γc- and non-γc-cytokines. […] Neutralizing antibodies against each cytokine (R & D systems, 5 μg ml^−1) were included as controls. After 20 h, the cells were pulsed with WST-1 (Clontech) and OD450 of each well was measured after 6 h. A 19-mer scrambled peptide was used as a negative control at 5 μM. The experiments were conducted in triplicate (applies to all experiments in FIG. 6A-FIG. 6E). The result represents one of at least three independent experiments (applies to all experiments in FIG. 6A-FIG. 6E). […] In PT-18 proliferation assay, PT-18β or PT-18h21Rα cells were withdrawn of mouse IL-3 for 12 h before the experiment. Cells were then incubated with 1 nM of mouse IL-4, mouse IL-9, or mouse IL-21 in the presence or absence of the indicated doses (μM) of BNZ132-1. Neutralizing antibodies to each cytokine (5 μg ml^−1, except for anti-mouse IL-21 polyclonal antibody which was used at 15 μg ml−1) and a scrambled control peptide (5 μM) were included as negative controls. WST-1 assay was conducted as described above. […] In PT-18 h21Rα survival assay, PT-18h21Rα cells are described in the text. […] Both parental and hIL-21Rα positive PT-18 cells were washed and incubated without IL-3 for 12 h before the assay. […] The Y-axis represents the cpm (count per minute) values measured by a β-counter. […]

human IL-15 = test: NK92 cell proliferation assay (WST-1), IL-15; settings: 24 h
Procedure: Human peripheral blood mononuclear cells were purified by the Ficoll-paque gradient centrifugation (GE-Healthcare) and stimulated by PHA (5 μg ml^−1, Sigma) for 48 h, then expanded with IL-2 (0.5 nM, Peprotech) for 48h, and then depleted of non-T cells by the Pan-T cell negative enrichment Ab cocktails (Miltenyi). The purified T cells were then fasted of IL-2 overnight prior to the proliferation assay by the tetrazolium dye method. Four hundred thousand cells (in 200 μl culture) were incubated with the cytokines and BNZ132-1 at the indicated concentrations for 24 h, and 20 μl WST1 reagent (Clontech) was added to each well. After 12 h incubation, OD450 was measured. The assay was performed in triplicate. […] NK 92 cells were cultured in human IL-2. Cells were washed to withdraw IL-2 for overnight and two hundred thousand cells (in 200 μl volume) were incubated with the indicated concentrations of the cytokine and BNZ132-1 for 24 h before 20 μl WST-1 reagent (Clontech) was added to each well to measure proliferative response. Absorbance at 450 nm was read at 6 h after the addition of the WST-1 dye. The assay was performed in triplicate. The assay was performed in triplicate and the figure represents a typical result out of 5 different HAM-TSP patients.
FIG. 8B, and FIG. 8C show the results of NK92 cell proliferation assay. NK92 cells responded to IL-2 and IL-15. […]

mouse IL-4 signal = test: Western blot of phosphorylation downstream of IL-4 in PT-18 cells; settings: 1 nM mouse IL-4, excess dose of BNZ132-1, 15 min
Procedure: PT-18 cells32 were fasted of IL-3 for 12 h prior to stimulation. Cells were stimulated with 1 nM mouse IL-4 or mouse IL-9 in the presence or absence of excess dose of BNZ132-1 ([…]) for 15 min and then cellular proteins were extracted. Phosphorylation of the indicated proteins was detected using phosphor-specific antibodies (Cell signaling), followed by ECL. IL-4 is the only γc-cytokine that induces the phosphorylation of STAT6. Note that only IL-4, but not IL-9, induced the tyrosine-phosphorylation of STAT6. […] Lanes: 1. no stimulation, 2. IL-4, 3. IL-4+BNZ132-1, 4. IL-9, 5. IL-9+BNZ132-1

## IKEFLQRFIHIVQSIINTS [BNZ132-1]
Mouse IL-9
  inhibition of IL-9-induced proliferation of PT-18 cells: partially inhibited; also recorded: inhibition of IL-9
Human IL-15
  inhibition of IL-15-induced proliferation of NK92 cells: dose-dependent manner; also recorded: dose-dependent inhibition
Mouse IL-4 signal
  inhibition of IL-4 signal transduction (phosphorylation, STAT6): does not interfere; also recorded: not inhibited
